# Data published in US20130274127A1, “GENE EXPRESSION MARKERS FOR PREDICTION OF RESPONSE TO PHOSPHOINOSITIDE 3-KINASE INHIBITORS” (GENOMIC HEALTH, INC., priority 2012, published 2013).
# Assays:
# OVCAR-4 tumor cell line = assay: siRNA knockdown and cell viability assay; assay type: cell-based, human
# [1] = system: MDA-MB-231 tumor cell line; assay: siRNA knockdown and cell viability assay; assay type: cell-based, human
structure (smiles),measurement,setting,value
Cn1c(=O)n(-c2ccc(C(C)(C)C#N)cc2)c2c3cc(-c4cnc5ccccc5c4)ccc3ncc21 [NVP-BEZ235],Sensitivity to NVP-BEZ235 (cell viability) upon loss of OGT expression,OVCAR-4 tumor cell line; OGT siRNA + 10 nM NVP-BEZ235,no effect
same,Sensitivity of cell line to NVP-BEZ235,OVCAR-4 tumor cell line; data not shown,highly NVP-BEZ235-resistant
same,Sensitivity to NVP-BEZ235 (cell viability) upon loss of OGT expression,[1]; OGT siRNA + 10 nM NVP-BEZ235,increased sensitivity
same,Sensitivity of cell line to NVP-BEZ235,[1]; data not shown,resistant
